Data: ChEMBL document CHEMBL3046824, “Synthesis and pharmacological evaluation of newer thiazolo [3,2-a] pyrimidines for anti-inflammatory and antinociceptive activity” (Med Chem Res, 2010)

Tests used:
Mus musculus = test: Antinociceptive activity in albino Mus musculus (mouse) assessed as increase in latency for tail withdrawal at 20 mg/kg, po measured after 4 hr by thermal stimulus method relative to control; assay type: functional
Rattus norvegicus [1] = test: Anti-inflammatory activity in albino Rattus norvegicus (rat) assessed as inhibition of carrageenan-induced paw edema at 25 mg/kg, po administered 1 hr prior to carrageenan-challenge measured after 1 to 3 hr relative to control; assay type: functional
[2] = Toxicity in ip dosed albino Mus musculus (mouse) measured after 24 hr; assay type: organism-based; details: in vivo, read-out: ALD50
[3] = Ulcerogenic activity in ip dosed fasted albino Rattus norvegicus (rat) measured after 8 hr; assay type: toxicity, organism-based; details: in vivo, read-out: UD50
Rattus norvegicus [4] = test: Anti-inflammatory activity in albino Rattus norvegicus (rat) assessed as inhibition of carrageenan-induced paw edema at 100 mg/kg, po administered 1 hr prior to carrageenan-challenge measured after 1 to 3 hr relative to control; assay type: functional
Rattus norvegicus [5] = test: Anti-inflammatory activity in albino Rattus norvegicus (rat) assessed as inhibition of carrageenan-induced paw edema at 50 mg/kg, po administered 1 hr prior to carrageenan-challenge measured after 1 to 3 hr relative to control; assay type: functional

## CC1=C(C(=O)Nc2ccc(F)cc2)C(c2ccc(Cl)cc2)n2c(s/c(=C/c3ccccc3Cl)c2=O)=N1 (centres undefined)
Mus musculus
  Activity: 63%
Rattus norvegicus [1]
  inhibition in vivo at 25 mg/kg: 16%

## CC1=C(C(=O)Nc2ccc(F)cc2)C(c2ccc(Cl)cc2)n2c(s/c(=C/c3ccc(Cl)cc3Cl)c2=O)=N1 (centres undefined)
Mus musculus
  Activity: 46%
Rattus norvegicus [1]
  inhibition in vivo at 25 mg/kg: 14%

## CC1=C(C(=O)Nc2ccc(F)cc2)C(c2ccc(Cl)cc2)n2c(s/c(=C/c3ccccc3[N+](=O)[O-])c2=O)=N1 (centres undefined)
Mus musculus
  Activity: 82%
Rattus norvegicus [1]
  inhibition in vivo at 25 mg/kg: 16%

## CC1=C(C(=O)Nc2ccc(F)cc2)C(c2ccc(F)cc2)n2c(s/c(=C/c3ccc([N+](=O)[O-])cc3)c2=O)=N1 (centres undefined)
Mus musculus
  Activity: 121%
Rattus norvegicus [1]
  inhibition in vivo at 25 mg/kg: 30%

## CC1=C(C(=O)Nc2ccc(F)cc2)C(c2ccc(F)cc2)n2c(s/c(=C/c3ccc(Cl)cc3)c2=O)=N1 (centres undefined)
[2]
  LD50 at 24 h: > 1000 mg/kg
[3]
  TD50 at 8 h: 175 mg/kg
Mus musculus
  Activity: 189%
Rattus norvegicus [4]
  inhibition in vivo at 100 mg/kg: 78%
Rattus norvegicus [5]
  inhibition in vivo at 50 mg/kg: 50%
Rattus norvegicus [1]
  inhibition in vivo at 25 mg/kg: 47%

## CC1=C(C(=O)Nc2ccc(F)cc2)C(c2ccccc2[N+](=O)[O-])n2c(s/c(=C/c3ccccc3Cl)c2=O)=N1 (centres undefined)
Mus musculus
  Activity: 72%
Rattus norvegicus [1]
  inhibition in vivo at 25 mg/kg: 12%

## CC1=C(C(=O)Nc2ccc(F)cc2)C(c2ccccc2[N+](=O)[O-])n2c(s/c(=C/c3ccc(Br)cc3)c2=O)=N1 (centres undefined)
Mus musculus
  Activity: 100%
Rattus norvegicus [1]
  inhibition in vivo at 25 mg/kg: 16%

## CC1=C(C(=O)Nc2ccc(F)cc2)C(c2ccc(F)cc2)n2c(s/c(=C/c3ccccc3Cl)c2=O)=N1 (centres undefined)
Mus musculus
  Activity: 119%
Rattus norvegicus [1]
  inhibition in vivo at 25 mg/kg: 19%

## CC1=C(C(=O)Nc2ccc(F)cc2)C(c2ccc(Cl)cc2)n2c(s/c(=C/c3ccc(F)cc3)c2=O)=N1 (centres undefined)
[2]
  LD50 at 24 h: > 1000 mg/kg
[3]
  TD50 at 8 h: 240 mg/kg
Mus musculus
  Activity: 172%
Rattus norvegicus [4]
  inhibition in vivo at 100 mg/kg: 80%
Rattus norvegicus [5]
  inhibition in vivo at 50 mg/kg: 60%
Rattus norvegicus [1]
  inhibition in vivo at 25 mg/kg: 44%

## CC1=C(C(=O)Nc2ccc(F)cc2)C(c2ccc(Cl)cc2)n2c(s/c(=C/c3ccc(Br)cc3)c2=O)=N1 (centres undefined)
Mus musculus
  Activity: 76%
Rattus norvegicus [1]
  inhibition in vivo at 25 mg/kg: 35%

## COc1ccc(/C=c2/sc3n(c2=O)C(c2ccc(Br)cc2)C(C(=O)Nc2ccc(F)cc2)=C(C)N=3)cc1OC (centres undefined)
Mus musculus
  Activity: 23%
Rattus norvegicus [1]
  inhibition in vivo at 25 mg/kg: 8%

## CC1=C(C(=O)Nc2ccc(F)cc2)C(c2ccc(Br)cc2)n2c(s/c(=C/c3ccc(Cl)cc3Cl)c2=O)=N1 (centres undefined)
Mus musculus
  Activity: 31%
Rattus norvegicus [1]
  inhibition in vivo at 25 mg/kg: 14%

## CC1=C(C(=O)Nc2ccc(F)cc2)C(c2ccc(Br)cc2)n2c(s/c(=C/c3ccccc3)c2=O)=N1 (centres undefined)
Mus musculus
  Activity: 76%
Rattus norvegicus [1]
  inhibition in vivo at 25 mg/kg: 5%

## CC1=C(C(=O)Nc2ccc(F)cc2)C(c2ccc(Br)cc2)n2c(s/c(=C/c3ccc(Cl)cc3)c2=O)=N1 (centres undefined)
Mus musculus
  Activity: 104%
Rattus norvegicus [1]
  inhibition in vivo at 25 mg/kg: 25%

## CC1=C(C(=O)Nc2ccc(F)cc2)C(c2ccc(Br)cc2)n2c(s/c(=C/c3ccc(C)cc3)c2=O)=N1 (centres undefined)
Mus musculus
  Activity: 72%
Rattus norvegicus [1]
  inhibition in vivo at 25 mg/kg: 11%

## CC1=C(C(=O)Nc2ccc(F)cc2)C(c2ccc([N+](=O)[O-])cc2)n2c(s/c(=C/c3ccc(Cl)cc3Cl)c2=O)=N1 (centres undefined)
Mus musculus
  Activity: 121%
Rattus norvegicus [1]
  inhibition in vivo at 25 mg/kg: 17%

## CC1=C(C(=O)Nc2ccc(F)cc2)C(c2ccc([N+](=O)[O-])cc2)n2c(s/c(=C/c3ccc(Cl)cc3)c2=O)=N1 (centres undefined)
Mus musculus
  Activity: 104%
Rattus norvegicus [1]
  inhibition in vivo at 25 mg/kg: 23%

## COc1ccc(/C=c2/sc3n(c2=O)C(c2ccc([N+](=O)[O-])cc2)C(C(=O)Nc2ccc(F)cc2)=C(C)N=3)cc1 (centres undefined)
Mus musculus
  Activity: 46%
Rattus norvegicus [1]
  inhibition in vivo at 25 mg/kg: 12%

## CC1=C(C(=O)Nc2ccc(F)cc2)C(c2ccc([N+](=O)[O-])cc2)n2c(s/c(=C/c3ccccc3Cl)c2=O)=N1 (centres undefined)
Mus musculus
  Activity: 140%
Rattus norvegicus [1]
  inhibition in vivo at 25 mg/kg: 19%

## CC1=C(C(=O)Nc2ccc(F)cc2)C(c2ccc([N+](=O)[O-])cc2)n2c(s/c(=C/c3ccccc3)c2=O)=N1 (centres undefined)
Mus musculus
  Activity: 93%
Rattus norvegicus [1]
  inhibition in vivo at 25 mg/kg: 7%

## O=C(O)Cc1ccccc1Nc1c(Cl)cccc1Cl [DICLOFENAC]
Mus musculus
  Activity: 274%

## CCCCC1C(=O)N(c2ccccc2)N(c2ccccc2)C1=O [PHENYLBUTAZONE]
[2]
  LD50 at 24 h: > 1000 mg/kg
[3]
  TD50 at 8 h: 70.2 mg/kg
Rattus norvegicus [4]
  inhibition in vivo at 100 mg/kg: 70%
Rattus norvegicus [5]
  inhibition in vivo at 50 mg/kg: 55%
Rattus norvegicus [1]
  inhibition in vivo at 25 mg/kg: 43%
